The IC50 is the concentration that inhibits the measured activity by half.

The record followed here is patent publication US20110118269A1, “FUSED PYRAZINE COMPOUNDS AS THEIR SALTS, USEFUL FOR THE TREATMENT OF DEGENERATIVE AND INFLAMMATORY DISEASES” (priority 2009, published 2011).

The nature of series [1]: Tolerability of compounds in healthy mice (total body weight). It is filed as in vivo, DBA/1J mice. The settings on record: 100 mg/kg/d, po, up to two weeks. The protocol: This protocol is designed to assess the tolerability of the compounds of the invention in healthy DBA/1J mice to determine the “therapeutic window” as defined by the dosing range between efficacious (mouse therapeutic Collagen-Induced Arthritis model) and toxic doses.
DBA/1J […] mice are used (CERJ (France)), the mice are 10-11 weeks old, and have a body weight of approx 20g.
Compounds are prepared for a dosing regimen of 100 mg/kg/d, po, free base, in a standard volume of injection of 0.1 mL/10 g of mice (equivalent to 10 mg/1 mL). For solution preparations, compounds are dissolved in 0.5% methyl-cellulose and 1% DMSO supplemented with 1 molar equivalent of methanesulfonic acid to ensure full dissolution, once a week.
Groups are randomized based on body weight and treated for up to two weeks. Each group contained 5 mice and received either test compound at 100 mg/kg, a comparison compound at 100 mg/kg/d (Compound A) or vehicle on a daily basis in a dosing volume of 200 μL per mouse.
Potential drug toxicity is monitored by observation every day and by recording body weights three times a week for weight loss. All statistical analyses are performed using Student's t test.
To assess the general tolerability of the treatments, the total body weight is followed throughout the course of the study.

Series [2] concerns MMP1 expression by synovial fibroblasts. As to the kind of experiment: 'MMP assay': complex trigger induced MMP1 expression by RASFs, compound testing. The class given is cell-based. Particulars: Homo sapiens, Fibroblast, 48 hrs. Here is the method: A 384-well format ELISA for measurement of MMP1 is developed. Various primary antibodies are tested, as well as various ELISA protocols. The following protocol is developed and validated to measure MMP1 levels in SF supernatant in 384 well plates: white Lumitrac 600 384 well plates (Greiner) are coated with 2 μg/mL anti-MMP1 antibody MAB1346 (Chemicon). The antibody is diluted in buffer 40 (1.21 g Tris base (Sigma), 0.58 g NaCl (Calbiochem) and 5 mL 10% NaN3 (Sigma) in 1 L milliQ water and adjusted to pH 8.5). After overnight incubation at 4° C., plates are washed with PBS (80 g NaCl, 2g KCl (Sigma), 11.5 g Na2HPO4.7H2O and 2 g KH2PO4 in 10 L milliQ; pH 7.4) and blocked with 100 μL/well Casein buffer (2% Casein (VWR International) in PBS). Next day, casein buffer is removed from ELISA plates and replaced by 50 μL/well EC buffer (4 g casein, 2.13 g Na2HPO4 (Sigma), 2 g bovine albumin (Sigma), 0.69 g NaH2PO4.H2O (Sigma), 0.5 g CHAPS (Roche), 23.3 g NaCl, 4 mL 0.5 M EDTA pH 8 (Invitrogen), 5 mL 10% NaN3 in 1 L milliQ and adjusted to pH 7.0). 0.25 mM DTT (Sigma) is added to the thawed samples plates. After removal of the EC buffer, 20 μL of sample is transferred to the ELISA plates. […] Readout is performed on the Luminoscan Ascent Luminometer (Labsystems) with an integration time of 200 msec or with an Envision reader (Perkin Elmer). […]

Consider `CC(C)N1C[C@@H]2C[C@H]1CN2c1ccc(Nc2ncc(-c3coc(C(N)=O)c3)n3ncnc23)cc1` [Compound 1, 4-{8-[4-((1S,4S)-5-Isopropyl-2,5-diaza-bicyclo[2.2.1]hept-2-yl)-phenylamino]-[1,2,4]triazolo[1,5-a]pyrazin-5-yl}-furan-2-carboxamide], for which the “weight of the animals compared to the vehicle” value in series [1] is listed as “no statistically significant difference”. Moreover, the IC50 in series [2] fell in the range of 100 to 1000 nM.
